From patent publication US8952024B2, “Herbicidal pyrimidone derivatives” (E I du Pont de Nemours and Company, priority 2009, dated 2015)

What was measured:
Type in all cases: in vivo
[1] = test system: barnyardgrass (Echinochloa crus-galli); test: Test A pre-/postemergence plant response; conditions: for Barnyardgrass plant response rating: visual injury, 0 to 100 scale (0 no effect, 100 complete control), approx. ten days
Procedure, shortened: (§1)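 Formulated test chemicals (non-phytotoxic solvent, surfactant) were sprayed onto soil right after planting and simultaneously onto young plants at one to two leaves, 2 to 10 cm tall. Plants stayed in the greenhouse about ten days; injury was then visually scored against untreated controls, from 0 (no effect) to 100 (complete control).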

corn (Zea mays) = test: Test A pre-/postemergence plant response; conditions: for Corn plant response rating: visual injury, 0 to 100 scale (0 no effect, 100 complete control), approx. ten days
Procedure, shortened: as §1

[2] = test system: giant foxtail (Setaria faberii); test: Test A pre-/postemergence plant response; conditions: for Foxtail, Giant plant response rating: visual injury, 0 to 100 scale (0 no effect, 100 complete control), approx. ten days
Procedure, shortened: as §1

[3] = test system: large crabgrass (Digitaria sanguinalis); test: Test A pre-/postemergence plant response; conditions: for Crabgrass, Large plant response rating: visual injury, 0 to 100 scale (0 no effect, 100 complete control), approx. ten days
Procedure, shortened: as §1

[4] = test system: morningglory (Ipomoea spp.); test: Test A pre-/postemergence plant response; conditions: for Morningglory plant response rating: visual injury, 0 to 100 scale (0 no effect, 100 complete control), approx. ten days
Procedure, shortened: as §1

[5] = test system: pigweed (Amaranthus retroflexus); test: Test A pre-/postemergence plant response; conditions: for Pigweed plant response rating: visual injury, 0 to 100 scale (0 no effect, 100 complete control), approx. ten days
Procedure, shortened: as §1

[6] = test system: velvetleaf (Abutilon theophrasti); test: Test A pre-/postemergence plant response; conditions: for Velvetleaf plant response rating: visual injury, 0 to 100 scale (0 no effect, 100 complete control), approx. ten days
Procedure, shortened: as §1

[7] = test system: wheat (Triticum aestivum); test: Test A pre-/postemergence plant response; conditions: for Wheat plant response rating: visual injury, 0 to 100 scale (0 no effect, 100 complete control), approx. ten days
Procedure, shortened: as §1

[8] = test system: barnyardgrass (Echinochloa crus-galli); test: Test B flooded paddy test; conditions: for Plant response rating, Barnyardgrass: Flood (flooded paddy test), 125 g ai/ha, scale 0 to 100, 0 is no effect, 100 is complete control, 13 to 15 days; for Barnyardgrass plant response rating: Flood, 31 g ai/ha, scale 0 to 100 (0 no effect, 100 complete control)
Procedure, shortened: (§2)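 Rice, umbrella sedge, ducksalad and barnyardgrass were grown to the 2-leaf stage, flooded to 3 cm, and compound was applied directly to the paddy water, with that depth kept throughout. After 13 to 15 days in the greenhouse, plants were visually rated against controls on a 0 (no effect) to 100 (complete control) scale.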

[9] = test system: ducksalad (Heteranthera limosa); test: Test B flooded paddy test; conditions: for Plant response rating, Ducksalad: Flood (flooded paddy test), 125 g ai/ha, scale 0 to 100, 0 is no effect, 100 is complete control, 13 to 15 days; for Ducksalad plant response rating: Flood, 31 g ai/ha, scale 0 to 100 (0 no effect, 100 complete control)
Procedure, shortened: as §2

rice (Oryza sativa) = test: Test B flooded paddy test; conditions: for Plant response rating, Rice: Flood (flooded paddy test), 125 g ai/ha, scale 0 to 100, 0 is no effect, 100 is complete control, 13 to 15 days; for Rice plant response rating: Flood, 31 g ai/ha, scale 0 to 100 (0 no effect, 100 complete control)
Procedure, shortened: as §2

[10] = test system: umbrella sedge (Cyperus difformis); test: Test B flooded paddy test; conditions: for Plant response rating, Sedge, Umbrella: Flood (flooded paddy test), 125 g ai/ha, scale 0 to 100, 0 is no effect, 100 is complete control, 13 to 15 days; for Sedge, Umbrella plant response rating: Flood, 31 g ai/ha, scale 0 to 100 (0 no effect, 100 complete control)
Procedure, shortened: as §2

[11] = Postemergence, 125 g ai/ha, 0 to 100 scale where 0 is no effect and 100 is complete control
[12] = Preemergence, 125 g ai/ha, 0 to 100 scale, 0 = no effect, 100 = complete control
[13] = Preemergence, 500 g ai/ha, 0 to 100 scale, 0 = no effect, 100 = complete control

Cc1cc(F)ccc1-n1c(-c2cccc(Cl)c2)ncc(C(=O)C2=C(O)CCCC2=O)c1=O [Compound 167]
Plant response rating, Barnyardgrass [1, 11]: 60
Barnyardgrass plant response rating ([1]; Postemergence, 500 g ai/ha): 100
Plant response rating, Barnyardgrass [1, 12]: 0
Plant response rating, Barnyardgrass [1, 13]: 30
Plant response rating, Corn (corn (Zea mays); [11]): 30
Corn plant response rating (corn (Zea mays); Postemergence, 500 g ai/ha): 30
Plant response rating, Corn (corn (Zea mays); [12]): 0
Plant response rating, Corn (corn (Zea mays); [13]): 0
Plant response rating, Foxtail, Giant [2, 11]: 90
Foxtail, Giant plant response rating ([2]; Postemergence, 500 g ai/ha): 90
Plant response rating, Foxtail, Giant [2, 12]: 10
Plant response rating, Foxtail, Giant [2, 13]: 50
Plant response rating, Crabgrass, Large [3, 11]: 60
Crabgrass, Large plant response rating ([3]; Postemergence, 500 g ai/ha): 90
Plant response rating, Crabgrass, Large [3, 12]: 20
Plant response rating, Crabgrass, Large [3, 13]: 90
Plant response rating, Morningglory [4, 11]: 60
Morningglory plant response rating ([4]; Postemergence, 500 g ai/ha): 100
Plant response rating, Morningglory [4, 12]: 0
Plant response rating, Morningglory [4, 13]: 0
Plant response rating, Pigweed [5, 11]: 90
Pigweed plant response rating ([5]; Postemergence, 500 g ai/ha): 100
Plant response rating, Pigweed [5, 12]: 10
Plant response rating, Pigweed [5, 13]: 90
Plant response rating, Velvetleaf [6, 11]: 100
Velvetleaf plant response rating ([6]; Postemergence, 500 g ai/ha): 100
Plant response rating, Velvetleaf [6, 12]: 70
Plant response rating, Velvetleaf [6, 13]: 100
Plant response rating, Wheat [7, 11]: 0
Wheat plant response rating ([7]; Postemergence, 500 g ai/ha): 0
Plant response rating, Wheat [7, 12]: 0
Plant response rating, Wheat [7, 13]: 0
Plant response rating, Barnyardgrass [8]: 20
Barnyardgrass plant response rating [8]: 0
Plant response rating, Ducksalad [9]: 70
Ducksalad plant response rating [9]: 0
Plant response rating, Rice (rice (Oryza sativa)): 0
Rice plant response rating (rice (Oryza sativa)): 0
Plant response rating, Sedge, Umbrella [10]: 60
Sedge, Umbrella plant response rating [10]: 20

C#CCn1c(-c2cc(F)cc(F)c2)ncc(C(=O)C2=C(O)CCCC2=O)c1=O [Compound 170]
Plant response rating, Barnyardgrass [1, 11]: 40
Barnyardgrass plant response rating ([1]; Postemergence, 500 g ai/ha): 90
Plant response rating, Barnyardgrass [1, 12]: 0
Plant response rating, Barnyardgrass [1, 13]: 60
Plant response rating, Corn (corn (Zea mays); [11]): 20
Corn plant response rating (corn (Zea mays); Postemergence, 500 g ai/ha): 30
Plant response rating, Corn (corn (Zea mays); [12]): 0
Plant response rating, Corn (corn (Zea mays); [13]): 0
Plant response rating, Foxtail, Giant [2, 11]: 50
Foxtail, Giant plant response rating ([2]; Postemergence, 500 g ai/ha): 80
Plant response rating, Foxtail, Giant [2, 12]: 10
Plant response rating, Foxtail, Giant [2, 13]: 70
Plant response rating, Crabgrass, Large [3, 11]: 60
Crabgrass, Large plant response rating ([3]; Postemergence, 500 g ai/ha): 90
Plant response rating, Crabgrass, Large [3, 12]: 10
Plant response rating, Crabgrass, Large [3, 13]: 70
Plant response rating, Morningglory [4, 11]: 100
Morningglory plant response rating ([4]; Postemergence, 500 g ai/ha): 100
Plant response rating, Morningglory [4, 12]: 0
Plant response rating, Morningglory [4, 13]: 70
Plant response rating, Pigweed [5, 11]: 80
Pigweed plant response rating ([5]; Postemergence, 500 g ai/ha): 100
Plant response rating, Pigweed [5, 12]: 30
Plant response rating, Pigweed [5, 13]: 50
Plant response rating, Velvetleaf [6, 11]: 100
Velvetleaf plant response rating ([6]; Postemergence, 500 g ai/ha): 100
Plant response rating, Velvetleaf [6, 12]: 10
Plant response rating, Velvetleaf [6, 13]: 80
Plant response rating, Wheat [7, 11]: 0
Wheat plant response rating ([7]; Postemergence, 500 g ai/ha): 20
Plant response rating, Wheat [7, 12]: 0
Plant response rating, Wheat [7, 13]: 20
Plant response rating, Barnyardgrass [8]: 30
Barnyardgrass plant response rating [8]: 0
Plant response rating, Ducksalad [9]: 45
Ducksalad plant response rating [9]: 0
Plant response rating, Rice (rice (Oryza sativa)): 20
Rice plant response rating (rice (Oryza sativa)): 15
Plant response rating, Sedge, Umbrella [10]: 35
Sedge, Umbrella plant response rating [10]: 0

CCCn1c(-c2cccc(C)c2)ncc(C(=O)C2=C(O)CCCC2=O)c1=O [Compound 172]
Plant response rating, Barnyardgrass [1, 11]: 90
Barnyardgrass plant response rating ([1]; Postemergence, 500 g ai/ha): 90
Plant response rating, Barnyardgrass [1, 12]: 10
Plant response rating, Barnyardgrass [1, 13]: 80
Plant response rating, Corn (corn (Zea mays); [11]): 20
Corn plant response rating (corn (Zea mays); Postemergence, 500 g ai/ha): 30
Plant response rating, Corn (corn (Zea mays); [12]): 0
Plant response rating, Corn (corn (Zea mays); [13]): 0
Plant response rating, Foxtail, Giant [2, 11]: 60
Foxtail, Giant plant response rating ([2]; Postemergence, 500 g ai/ha): 90
Plant response rating, Foxtail, Giant [2, 12]: 10
Plant response rating, Foxtail, Giant [2, 13]: 60
Plant response rating, Crabgrass, Large [3, 11]: 60
Crabgrass, Large plant response rating ([3]; Postemergence, 500 g ai/ha): 80
Plant response rating, Crabgrass, Large [3, 12]: 10
Plant response rating, Crabgrass, Large [3, 13]: 90
Plant response rating, Morningglory [4, 11]: 90
Morningglory plant response rating ([4]; Postemergence, 500 g ai/ha): 100
Plant response rating, Morningglory [4, 12]: 0
Plant response rating, Morningglory [4, 13]: 50
Plant response rating, Pigweed [5, 11]: 100
Pigweed plant response rating ([5]; Postemergence, 500 g ai/ha): 100
Plant response rating, Pigweed [5, 12]: 10
Plant response rating, Pigweed [5, 13]: 100
Plant response rating, Velvetleaf [6, 11]: 100
Velvetleaf plant response rating ([6]; Postemergence, 500 g ai/ha): 100
Plant response rating, Velvetleaf [6, 12]: 50
Plant response rating, Velvetleaf [6, 13]: 80
Plant response rating, Wheat [7, 11]: 0
Wheat plant response rating ([7]; Postemergence, 500 g ai/ha): 20
Plant response rating, Wheat [7, 12]: 0
Plant response rating, Wheat [7, 13]: 0
Plant response rating, Barnyardgrass [8]: 20
Barnyardgrass plant response rating [8]: 0
Plant response rating, Ducksalad [9]: 60
Ducksalad plant response rating [9]: 20
Plant response rating, Rice (rice (Oryza sativa)): 0
Rice plant response rating (rice (Oryza sativa)): 0
Plant response rating, Sedge, Umbrella [10]: 75
Sedge, Umbrella plant response rating [10]: 0

CCc1ccc(-n2c(-c3cccc(Br)c3)ncc(C(=O)C3=C(O)CCCC3=O)c2=O)cc1 [Compound 175]
Plant response rating, Barnyardgrass [1, 11]: 50
Barnyardgrass plant response rating ([1]; Postemergence, 500 g ai/ha): 100
Plant response rating, Barnyardgrass [1, 12]: 0
Plant response rating, Barnyardgrass [1, 13]: 30
Plant response rating, Corn (corn (Zea mays); [11]): 0
Corn plant response rating (corn (Zea mays); Postemergence, 500 g ai/ha): 20
Plant response rating, Corn (corn (Zea mays); [12]): 0
Plant response rating, Corn (corn (Zea mays); [13]): 0
Plant response rating, Foxtail, Giant [2, 11]: 30
Foxtail, Giant plant response rating ([2]; Postemergence, 500 g ai/ha): 80
Plant response rating, Foxtail, Giant [2, 12]: 0
Plant response rating, Foxtail, Giant [2, 13]: 50
Plant response rating, Crabgrass, Large [3, 11]: 40
Crabgrass, Large plant response rating ([3]; Postemergence, 500 g ai/ha): 80
Plant response rating, Crabgrass, Large [3, 12]: 30
Plant response rating, Crabgrass, Large [3, 13]: 50
Plant response rating, Morningglory [4, 11]: 10
Morningglory plant response rating ([4]; Postemergence, 500 g ai/ha): 80
Plant response rating, Morningglory [4, 12]: 0
Plant response rating, Morningglory [4, 13]: 10
Plant response rating, Pigweed [5, 11]: 100
Pigweed plant response rating ([5]; Postemergence, 500 g ai/ha): 100
Plant response rating, Pigweed [5, 12]: 60
Plant response rating, Pigweed [5, 13]: 100
Plant response rating, Velvetleaf [6, 11]: 100
Velvetleaf plant response rating ([6]; Postemergence, 500 g ai/ha): 100
Plant response rating, Velvetleaf [6, 12]: 40
Plant response rating, Velvetleaf [6, 13]: 50
Plant response rating, Wheat [7, 11]: 0
Wheat plant response rating ([7]; Postemergence, 500 g ai/ha): 0
Plant response rating, Wheat [7, 12]: 0
Plant response rating, Wheat [7, 13]: 0
Plant response rating, Barnyardgrass [8]: 20
Barnyardgrass plant response rating [8]: 0
Plant response rating, Ducksalad [9]: 95
Ducksalad plant response rating [9]: 75
Plant response rating, Rice (rice (Oryza sativa)): 0
Rice plant response rating (rice (Oryza sativa)): 0
Plant response rating, Sedge, Umbrella [10]: 85
Sedge, Umbrella plant response rating [10]: 75
